Reference: patent US9440941B2, “Substituted chroman-6-yloxy-cycloalkanes and their use as pharmaceuticals” (SANOFI, priority 2013, dated 2016)
Where a name gives a salt, the structure may show the parent alone.

Biological target: T1, human NCX1 (Homo sapiens, UniProt P32418)
T1 construct: expressed in transfected cells
Test: Inhibition of Ca2+ influx into cells (NCX1 reverse mode), FLIPR Fluo-4 assay
Assay type: cell-based
Conditions: at 10 μM; NCX1 reverse mode; IC50 value not determined; read-out: Inhibition in % at 10 μM (NCX1rv)
Excerpt: The sodium/calcium exchanger NCX1 can transport calcium ions and sodium ions through the cell membrane. The transport is an exchange of Ca^2+ and Na^+ in two directions depending on membrane potential and ion gradients. At the first direction, named “forward mode” or “calcium export mode”, Ca^2+ is transported out of the cell and Na^+ is transported into the cell. At the other direction, named “reverse mode” or “calcium import mode”, the transport directions are vice versa. The effect of the compounds of the invention on NCX1 was determined in CHO cells stably expressing human NCX1 (gene symbol SLC8A1; cf. WO 2009/115238). The assay is based on the monitoring of intracellular Ca^2+ concentrations using a calcium-sensitive fluorescence dye which is detected by means of a FLIPR device (Fluorimetric Imaging Plate Reader, Molecular Devices).
Assay Technology—Reverse Mode
The assay is based on the monitoring of intracellular Ca^2+ concentrations using the calcium-sensitive dye Fluo-4. CHO cells expressing NCX1 were loaded with the dye by means of the acetoxymethyl ester Fluo-4 AM (Invitrogen, F14202), which is cleaved intracellularly by esterase activity to yield the charged species of free Fluo-4. After an preincubation period with the test compound, Gramicidine (Sigma, G5002) was added. Gramicidine is an ionophor for Na^+ ions mediating an increase of intracellular Na^+ ions. Consequently, intracellular Na^+ ions are exchanged against extracellular Ca^2+ ions (Ca^2+ influx, reverse mode). The intracellular elevation of Ca^2+ ions was detected by measuring the fluorescence of Fluo-4 at a wavelength of 520 nm by a FLIPR device.
Briefly, for the reverse mode transport assay 18000 cells per well were seeded into a 96 well microplate (Corning COSTAR 3904) and incubated overnight in culture medium (1× Nut Mix F12 (Ham) (Gibco, 21765-029); 10% (v/v) fetal calf serum (PAA Gold, A15-649); 450 μg/ml Geneticin (Gibco, 10131-027)). A total volume of 100 μl medium per well was used. For the preparation of the FLIPR assay, the culture medium was removed from the plates and 100 μl of dye solution (2 μM Fluo-4 AM; 0.02% (v/v) Pluronic F-127 (20%, Invitrogen, P3000MP); 0.1% (v/v) bovine albumin solution (30% (v/v), Sigma, A9205) in assay buffer (133.8 mM NaCl (Sigma, S5886); 4.7 mM KCl (Sigma, P3911); 1.25 mM MgCl2 (Merck, 1.05833.0250); 3.5 mM CaCl2 (Merck, 1.02083.0250); 5 mM glucose (Sigma, G7021); 10 mM Hepes (Sigma, H4034); 0.01% (v/v) Pluronic F-127 (5%, Sigma, P2443); 2.5 mM Probenecid (Maybridge, SB00915EB); pH 7.4)) were added into each well. The plates were incubated in the dark at room temperature for 80 min. After the incubation period, the dye solution was removed and the wells were washed with 100 μl of assay buffer. Then 80 μl of a solution of the test compound in assay buffer in different concentrations were added into the wells. The plates were incubated at 16° C. for 45 min. Meanwhile a 60 μM solution of Gramicidine in assay buffer (4° C.) was prepared and stored in the wells of a 96 well microplate (96 well microplate, polypropylene, U-shape (Greiner Bio-One, 650201)) at 4° C. until measurement was started. The fluorescence monitoring was performed at 240 measuring points with measurement intervals of 2 sec. After the fifth measuring point, 40 μl of the Gramicidine solution were added to each well of the assay plates to give a final Gramicidine concentration of 20 μM. For the determination of the IC50 values the minimal fluorescence value was subtracted from the maximal fluorescence value for all measuring points. The calculation of the IC50 values via the percentage inhibitions of Ca^2+ influx into cells (reverse mode) effected by the test compound was performed in Biost@t Speed 2.0.

Compound | inhibition at 10 µM [%]
CCC(COC)NC1CCC(Oc2ccc3c(c2)CCC(c2ccccc2C)O3)CC1 (stereo not shown) [compound 195] | 96
Cc1ccccc1C1CCc2cc(OC3CCC(NC4CCOCC4)CC3)ccc2O1 (stereo not shown) [compound 197] | 96

Same assay, conditions: inhibition of NCX1 in reverse mode (Ca2+ influx into cells); read-out: NCX1rv IC50

Compound | IC50 [µM]
CSCCNC1CCC(Oc2ccc3c(c2)CCC(c2ccccc2)O3)CC1 (stereo not shown) [compound 111] | 0.6
CCn1nccc1CNC(=O)C1CCC(Oc2ccc3c(c2)CCC(c2cccc(F)c2OC)O3)CC1 (stereo not shown) [compound 300] | 0.4
N[C@H]1CC[C@H](Oc2ccc3c(c2)CC[C@H](c2ccccc2)O3)CC1 [compound 9, hydrochloride] | 0.3
Clc1ccc(CN[C@H]2CC[C@H](Oc3ccc4c(c3)CCC(c3ccccc3)O4)CC2)s1 (stereo partly drawn) [compound 69, N-(5-Chloro-thiophen-2-ylmethyl)-[trans-4-(2-phenylchroman-6-yloxy)]-cyclohexylamine] | 1.3
O=S1(=O)CCC(NC2CCC(Oc3ccc4c(c3)CCC(c3ccccc3F)O4)CC2)C1 (stereo not shown) [compound 210] | 1.1
N-((S)-2-Methoxy-1-methyl-ethyl)-4-(2-phenylchroman-6-yloxy)-cyclohexylamine [compound 140] | 1.4
N-(2-Methoxyethyl)-4-(2-phenylchroman-6-yloxy)-cyclohexylamine [compound 132] | 0.7
CCCCNC1CCC(Oc2ccc3c(c2)CCC(c2ccccc2F)O3)CC1 (stereo not shown) [compound 230] | 2.9
CCCNC1CCC(Oc2ccc3c(c2)CCC(c2ccccc2F)O3)CC1 (stereo not shown) [compound 213] | 1.4
CC(=O)NC[C@H]1CC[C@@H](Oc2ccc3c(c2)CCC(c2ccccc2)O3)CC1 (relative stereo) [compound 4] | 0.4
CSC(C)CCNC1CCC(Oc2ccc3c(c2)CCC(c2c(C)cccc2C)O3)CC1 (stereo not shown) [compound 165] | 10
O=C(OC1CCC(Oc2ccc3c(c2)CCC(c2ccccc2)O3)CC1)c1ccncc1F (stereo not shown) [compound 89, 3-Fluoro-isonicotinic acid 4-(2-phenyl-chroman-6-yloxy)-cyclohexyl ester] | 0.4
N[C@@H](CO)C(=O)N[C@H]1CC[C@H](Oc2ccc3c(c2)CCC(c2ccccc2)O3)CC1 (stereo partly shown) [compound 181, hydrochloride] | 0.3
Cc1nc(CC(=O)N[C@H]2CC[C@H](Oc3ccc4c(c3)CCC(c3ccccc3)O4)CC2)c(C)s1 (relative stereo) [compound 40] | 0.3
Fc1ccccc1C1CCc2cc(OC3CCC(NCCN4CCSCC4)CC3)ccc2O1 (stereo not shown) [compound 227] | 4.3
CCC(C)CN(CCO)C1CCC(Oc2ccc3c(c2)CCC(c2ccccc2)O3)CC1 (stereo not shown) [compound 100] | 1.4
O=C(N[C@H]1CC[C@H](Oc2ccc3c(c2)CCC(c2ccccc2)O3)CC1)C1CCC1 (relative stereo) [compound 20] | 0.2
N[C@H]1C[C@@H](Oc2ccc3c(c2)CCC(c2ccccc2)O3)C1 (relative stereo) [compound 306, hydrochloride] | 1.6
O=C(Cn1cccn1)N[C@H]1CC[C@H](Oc2ccc3c(c2)CCC(c2ccccc2)O3)CC1 (relative stereo) [compound 24] | 0.3
1,1-Dioxo-N-[4-(2-phenylchroman-6-yloxy)cyclohexyl]-tetrahydrothiophen-3-ylamine [compound 147] | 0.7
O=C(N[C@H]1CC[C@H](Oc2ccc3c(c2)CCC(c2ccccc2F)O3)CC1)C1CC1(F)F (relative stereo) [compound 251] | 5
N-(2-Ethylsulfanylethyl)-4-(2-phenylchroman-6-yloxy)-cyclohexylamine [compound 131] | 0.6
Cc1cccc(C)c1C1CCc2cc(OC3CCC(NCc4c(C)nn(C)c4C)CC3)ccc2O1 (stereo not shown) [compound 164] | 9.4
c1ccc(C2CCc3cc(O[C@H]4CC[C@H](NCc5cncs5)CC4)ccc3O2)cc1 (relative stereo) [compound 47] | 0.4

Compound | IC50 [µM]
Cn1cc(Cl)c(CN(Cc2nn(C)cc2Cl)[C@H]2CC[C@H](Oc3ccc4c(c3)CCC(c3ccccc3)O4)CC2)n1 (stereo partly drawn) [compound 81, N,N-Bis(4-chloro-1-methyl-pyrazol-3-ylmethyl)-[trans-4-(2-phenylchroman-6-yloxy)]-cyclohexylamine] | 4
O=C(NCc1ccno1)C1CCC(Oc2ccc3c(c2)CCC(c2ccccc2F)O3)CC1 (stereo not shown) [compound 174] | 0.6
N-(2-Hydroxy-1,1-dimethyl-ethyl)-4-(2-phenylchroman-6-yloxy)-cyclohexanecarboxamide [compound 151] | 1.3
COCC(C)NC1CCC(Oc2ccc3c(c2)CCC(c2ccccc2F)O3)CC1 (stereo not shown) [compound 219] | 2.4
CC(C)(C)OCCCNC1CCC(Oc2ccc3c(c2)CCC(c2ccccc2)O3)CC1 (stereo not shown) [compound 122] | 1.2
Fc1ccccc1C1CCc2cc(OC3CCC(NCCN4CCOCC4)CC3)ccc2O1 (stereo not shown) [compound 224] | 3.5
c1ccc(C2CCc3cc(OC4CCC(NC5CC5)CC4)ccc3O2)cc1 (stereo not shown) [compound 123] | 1
CCn1nccc1CNC1CCC(Oc2ccc3c(c2)CCC(c2ccccc2)O3)CC1 (stereo not shown) [compound 76] | 1
Cc1cc2c(cc1OC1CCC(C(=O)NCc3ccno3)CC1)CCC(c1ccccc1C)O2 (stereo not shown) [compound 289] | 1.3
COCCNC1CCC(Oc2ccc3c(c2)CCC(c2ccccc2F)O3)CC1 (stereo not shown) [compound 214] | 1.6
Cc1c(F)cccc1C1CCc2cc(OC3CCC(C(=O)NCCS(=O)(=O)N(C)C)CC3)ccc2O1 (stereo not shown) [compound 274] | 0.6
O=C(CO)N[C@H]1CC[C@H](Oc2ccc3c(c2)CCC(c2ccccc2)O3)CC1 (relative stereo) [compound 278] | 0.2
CC(=O)N[C@H]1CC[C@H](Oc2ccc3c(c2)CCC(c2ccccc2)O3)CC1 (relative stereo) [compound 7] | 0.3
N-[1-(Methoxymethyl)propyl]-4-(2-phenylchroman-6-yloxy)-cyclohexylamine [compound 133] | 1
Cc1ccccc1C1CCc2cc(O[C@H]3CC[C@H](NCC4CCOC4)CC3)ccc2O1 (relative stereo) [compound 154, (Tetrahydrofuran-3-ylmethyl)-[trans-4-(2-o-tolyl-chroman-6-yloxy)-cyclohexyl]-amine] | 2.2
O=C(Cn1cncn1)N[C@H]1CC[C@H](Oc2ccc3c(c2)CCC(c2ccccc2F)O3)CC1 (relative stereo) [compound 256] | 0.1
CN[C@@H](C)C(=O)N[C@H]1CC[C@H](Oc2ccc3c(c2)CCC(c2ccccc2)O3)CC1 (stereo partly shown) [compound 71, hydrochloride] | 0.6
COc1cccc(C2CCc3cc(OC4CCC(C(=O)NCCO)CC4)ccc3O2)c1F (stereo not shown) [compound 294] | 1.3
Fc1ccccc1C1CCc2cc(OC3CCC(NC4CCCC4)CC3)ccc2O1 (stereo not shown) [compound 218] | 2.8
Cc1nc(C(=O)N[C@H]2CC[C@H](Oc3ccc4c(c3)CCC(c3ccccc3F)O4)CC2)cs1 (relative stereo) [compound 247] | 0.3
O=C(CCn1cccn1)N[C@H]1CC[C@H](Oc2ccc3c(c2)CCC(c2ccccc2F)O3)CC1 (single isomer, unassigned) [compound 253] | 0.3
Cc1ccccc1C1CCc2cc(OC3CCC(NC4CC4)CC3)ccc2O1 (stereo not shown) [compound 203] | 1.5
O=C(N[C@H]1CC[C@H](Oc2ccc3c(c2)CCC(c2ccccc2)O3)CC1)c1ccncc1F (relative stereo) [compound 31] | 0.1
